Activity calls are given as the source filed them. No cut-off for these calls is given here.
What was measured:
[1] = tested on: RAW264.7; test: Antiinflammatory activity in LPS induced mouse RAW264.7 cells assessed as reduction in TNF-alpha production at 100 ug/ml measured after 24 hrs; format: functional; details: dose 100 µg/ml
[2] = tested on: Streptococcus mutans; test: Antibacterial activity against Streptococcus mutans ATCC 25175 assessed as reduction in bacterial growth at 1.25 to 100 ug/ml by broth microdilution method; format: functional, organism-based; details: dose 1.25-100 µg/ml
[3] = tested on: Streptococcus sobrinus; test: Antibacterial activity against Streptococcus sobrinus ATCC 33478 assessed as reduction in bacterial growth at 1.25 to 100 ug/ml by broth microdilution method; format: functional, organism-based; details: dose 1.25-100 µg/ml
[4] = tested on: RAW264.7; test: Antiinflammatory activity in mouse RAW264.7 cells assessed as inhibition of IL-6 production; format: functional, cell-based; details: dose <= 100.0 µg/ml
[5] = tested on: RAW264.7; test: Antiinflammatory activity in mouse RAW264.7 cells assessed as inhibition of TNF-alpha production; format: functional, cell-based; details: dose <= 100.0 µg/ml
[6] = tested on: RAW264.7; test: Antiinflammatory activity in LPS induced mouse RAW264.7 cells assessed as inhibition of IL-6 production at 100 ug/ml measured after 24 hrs; format: functional; details: dose 100 µg/ml
[7] = tested on: Streptococcus mutans; test: Antibacterial activity against Streptococcus mutans ATCC 25175 assessed as reduction in bacterial growth at 1.25 to 100 ug/ml by broth microdilution method relative to control; format: functional; design: scale not given: the % may be the effect or the level left; details: dose 1.25-100 µg/ml; at 1.25 to 100 µg/mL
[8] = tested on: Streptococcus sobrinus; test: Antibacterial activity against Streptococcus sobrinus ATCC 33478 assessed as reduction in bacterial growth at 1.25 to 100 ug/ml by broth microdilution method relative to control; format: functional; design: scale not given: the % may be the effect or the level left; details: dose 1.25-100 µg/ml; at 1.25 to 100 µg/mL

SMILES | Activity [1] | Activity [2] | Activity [3] | Activity [4] | Activity [5] | Activity [6] | Activity [7] | Activity [8]
C[C@@H](/C=C/[C@@]1(O)C(C(=O)O)=CC(=O)CC1(C)C)O[C@@H]1O[C@H](CO)[C@@H](O)[C@H](O)[C@H]1O | 9806.7 pg/mL | inactive | inactive | Dose-Dependent Effect | Dose-Dependent Effect | 1570.7 pg/mL |  | 
C[C@@H]1O[C@@H](O[C@H]2[C@@H](O)[C@H](O)[C@@H](C)O[C@H]2c2c(O)cc3oc(-c4ccc(O)c(O)c4)cc(=O)c3c2O)[C@@H](O)[C@H](O)[C@H]1O | 7473.5 pg/mL |  |  | Dose-Dependent Effect | Dose-Dependent Effect | 766.6 pg/mL | 24% | 26%
C[C@H]1O[C@@H](c2c(O[C@@H]3O[C@H](CO)[C@@H](O)[C@H](O)[C@H]3O)cc3oc(-c4ccc(O)c(O)c4)cc(=O)c3c2O)C[C@H](O)[C@H]1O [FAROBIN A] | 9606 pg/mL |  |  | Dose-Dependent Effect | Dose-Dependent Effect | 1051.8 pg/mL | 28% | 26%
